Results on 49 compounds are retold here after ChEMBL document CHEMBL1142401, “QSAR modeling of the rodent carcinogenicity of nitrocompounds” (2008).

For this test, the species on record is Rattus norvegicus. Nature of the test: Anticarcinogenic activity in rat assessed as induction of tumors per day. The class given is functional.

Take `Nc1nnc(-c2ccc([N+](=O)[O-])o2)s1`: the TD50 came to 3.12 µmol/kg and the pTD50 was 0.494.
Consider `O=[N+]([O-])c1cccc2cccnc12`, for which the TD50 was determined as 54.836 µmol/kg and the pTD50 is recorded as 1.739.
In the case of `O=[N+]([O-])c1ccc(-c2nc(N3CCOCC3)c3ccccc3n2)s1`, the TD50 turned out to be 14.692 µmol/kg and the pTD50 was 1.167.
The corresponding values for `CC(=O)Nc1nc(-c2ccc([N+](=O)[O-])o2)cs1` are 28.63 µmol/kg and 1.457.
The corresponding values for `O=[N+]([O-])c1ccc(-c2nnc(O)o2)o1` are 43.682 µmol/kg and 1.64.
Turning to `O=C1NC(c2ccc([N+](=O)[O-])s2)Nc2ccccc21` (stereo not drawn), the TD50 is 5.558 µmol/kg and the pTD50 is recorded as 0.745.
The corresponding values for `O=[N+]([O-])c1ccc(-c2cnc3ccccn23)o1` are 68.938 µmol/kg and 1.838.
In the case of `CC(C)=NNc1nc(-c2ccc([N+](=O)[O-])o2)cs1`, the TD50 is 22.721 µmol/kg and the pTD50 was 1.356.
With `Nc1nc(-c2ccc([N+](=O)[O-])o2)cs1`, the TD50 was found to be 27.699 µmol/kg and the pTD50 was determined as 1.442.
The corresponding values for `NC(=O)/C(=C\c1ccc([N+](=O)[O-])o1)c1ccco1` are 45.932 µmol/kg and 1.662.
The corresponding values for `CC(=O)Nc1nc(NC(C)=O)nc(-c2ccc([N+](=O)[O-])o2)n1` are 41.798 µmol/kg and 1.621.
In the same order, the values of `CC(C)(C)c1cc([N+](=O)[O-])cc([N+](=O)[O-])c1OS(C)(=O)=O` are 8.357 µmol/kg and 0.922.
Regarding `Cc1cc(C)nc(-c2ccc([N+](=O)[O-])o2)n1`, the TD50 came out at 11.907 µmol/kg and the pTD50 came out at 1.076.
In the same order, the values of `CC(=O)Nc1nnc(-c2ccc([N+](=O)[O-])o2)s1` are 34.773 µmol/kg and 1.541.
As for `CC(=O)NCc1nc(-c2ccc([N+](=O)[O-])o2)no1`, the TD50 is 20.62 µmol/kg and the pTD50 was found to be 1.314.
The corresponding values for `CC(C)[N+](=O)[O-]` are 3288.692 µmol/kg and 3.517.
In the same order, the values of `CN(C)C/N=c1\[nH]nc(/C=C/c2ccc([N+](=O)[O-])o2)o1` are 73.052 µmol/kg and 1.864.
For the compound `NNc1nc(-c2ccc([N+](=O)[O-])o2)cs1`, the TD50 was 12.51 µmol/kg and the pTD50 turned out to be 1.097.
In the same order, the values of `CN(C)Nc1nc(-c2ccc([N+](=O)[O-])o2)cs1` are 1.538 µmol/kg and 0.187.
The corresponding values for `Nc1nc(N)nc(-c2ccc([N+](=O)[O-])o2)n1` are 7.697 µmol/kg and 0.886.
As for `CC(=O)OC(OC(C)=O)c1ccc([N+](=O)[O-])o1`, the TD50 is 431.796 µmol/kg and the pTD50 is 2.635.
Regarding `O=[N+]([O-])c1ccc(-c2nc(NCCO)c3ccccc3n2)s1`, the TD50 was 12.139 µmol/kg and the pTD50 stood at 1.084.
The corresponding values for `COc1c(Cl)c(Cl)c([N+](=O)[O-])c(Cl)c1Cl` are 65.65 µmol/kg and 1.82.
The corresponding values for `O=C(Nc1nc(-c2ccc([N+](=O)[O-])o2)cs1)C(F)(F)F` are 18.164 µmol/kg and 1.259.
The corresponding values for `Nc1ncc([N+](=O)[O-])s1` are 223.922 µmol/kg and 2.35.
With `O=[N+]([O-])c1ccc2c3c(cccc13)CC2`, the TD50 was 30.02 µmol/kg and the pTD50 was found to be 1.48.
For the compound `Nc1nnc(-c2ccc([N+](=O)[O-])o2)o1`, the TD50 is 13.971 µmol/kg and the pTD50 was found to be 1.145.
Turning to `Cl.O=C1OC(CN2CCOCC2)CN1/N=C/c1ccc([N+](=O)[O-])o1` (stereo not drawn), the TD50 was 8.665 µmol/kg and the pTD50 is reported as 0.938.
In the case of `NNc1nc(-c2ccc([N+](=O)[O-])cc2)cs1`, the TD50 was 3.145 µmol/kg and the pTD50 was 0.498.
The corresponding values for `O=CNc1nc(-c2ccc([N+](=O)[O-])o2)cs1` are 21.195 µmol/kg and 1.326.
For `N/C(=N\O)c1ccc([N+](=O)[O-])o1`, the TD50 is 245.455 µmol/kg and the pTD50 came to 2.39.
The corresponding values for `O=[N+]([O-])c1ccc2ccc3cccc4ccc1c2c34` [1-NITROPYRENE] are 13.468 µmol/kg and 1.129.
In the same order, the values of `COc1ccccc1[N+](=O)[O-]` [2-NITROANISOLE] are 69.87 µmol/kg and 1.84.
As to `Nc1ccc([N+](=O)[O-])cc1` [4-NITROANILINE], the TD50 was found to be 65.521 µmol/kg and the pTD50 is listed as 1.816.
The corresponding values for `Cn1cnc([N+](=O)[O-])c1Sc1ncnc2[nH]cnc12` [AZATHIOPRINE] are 36.428 µmol/kg and 1.561.
The corresponding values for `O=C(N[C@H](CO)[C@H](O)c1ccc([N+](=O)[O-])cc1)C(Cl)Cl` [CHLORAMPHENICOL] are 860.336 µmol/kg and 2.935.
For the compound `Cc1ncc([N+](=O)[O-])n1C` [DIMETRIDAZOLE], the TD50 came to 120.458 µmol/kg and the pTD50 is on record as 2.081.
`CNc1ccc(N(CCO)CCO)cc1[N+](=O)[O-]` [HC BLUE NO. 1]: the TD50 was 1680.55 µmol/kg and the pTD50 is reported as 3.23.
In the case of `Cc1ncc([N+](=O)[O-])n1CCO` [METRONIDAZOLE], the TD50 came out at 356.989 µmol/kg and the pTD50 is given as 2.553.
In the same order, the values of `O=C1NCCN1/N=C/c1ccc([N+](=O)[O-])o1` [NIFURADENE] are 23.646 µmol/kg and 1.37.
Take `CC1CN(/N=C/c2ccc([N+](=O)[O-])o2)C(=O)N1` (stereo not drawn) [NIFURIMIDE]: the TD50 worked out at 22.418 µmol/kg and the pTD50 worked out at 1.351.
In the same order, the values of `O=CNNc1nc(-c2ccc([N+](=O)[O-])o2)cs1` [NIFURTHIAZOLE] are 13.925 µmol/kg and 1.144.
The corresponding values for `CCNC(=O)Nc1ncc([N+](=O)[O-])s1` [NITHIAZIDE] are 605.88 µmol/kg and 2.78.
The corresponding values for `O=[N+]([O-])c1ccccc1` [NITROBENZENE] are 47.681 µmol/kg and 1.678.
Turning to `CC[N+](=O)[O-]` [NITROETHANE], the TD50 came to 29174.093 µmol/kg and the pTD50 was found to be 4.465.
In the same order, the values of `O=C1CN(/N=C/c2ccc([N+](=O)[O-])o2)C(=O)N1` [NITROFURANTOIN] are 228.001 µmol/kg and 2.358.
The corresponding values for `NC(=O)N/N=C/c1ccc([N+](=O)[O-])o1` [NITROFURAZONE] are 32.907 µmol/kg and 1.517.
On to `O=[N+]([O-])OCC(CO[N+](=O)[O-])O[N+](=O)[O-]` [NITROGLYCERIN], for which the TD50 was found to be 1448.787 µmol/kg and the pTD50 is recorded as 3.161.
The corresponding values for `CCCN(CCC)c1c([N+](=O)[O-])cc(C(F)(F)F)cc1[N+](=O)[O-]` [TRIFLURALIN] are 17567.456 µmol/kg and 4.245.

By TD50 is commonly meant the dose at which the toxic effect under study appears in half of the subjects.
